Data on two compounds can be found in PMC1851987, “Identification of the Endogenous Key Substrates of the Human Organic Cation Transporter OCT2 and Their Implication in Function of Dopaminergic Neurons” (PLoS ONE, 2007).

The test system of data set [1] is HEK-293 cells expressing OCT2. Nature of the data set: MTT reduction cell viability assay, OCT2 (wild-type 400R) transfected HEK-293 cells. It is filed as cell-based, human. Particulars: cyclo(his-pro) 10 µmol/l, 12 h prior to salsolinol treatment. Here is the method: (§1) Cell viability was assessed in HEK-293 cells, human dopaminergic neuroblastoma cells (SH-SY5Y) and human glioblastoma cells (HTZ-146) by the MTT test as described.[22] […] For indication of metabolic activity, cells were treated with MTT reagent (15 µl of 1 mg/ml stock solution per well) for 1 h, and after drying of culture plates for 1 h at 37°C, the resulting formazan dye was extracted with isopropanol/HCl (100 µl 0.04 mol/l per well) and absorbance was determined spectrophotometrically at 568 nm.
For orientation: Formazan colour is commonly taken as a measure of viable cells.

A further data set concerns OCT2 (wild-type 400R). The description is as above. It is filed as cell-based, human. The conditions noted are these: human, HEK-293 cells transfected with OCT2 (wild-type 400R); 48 h exposure, no pretreatment; read-out: EC50 (95% confidence interval), cell viability. The protocol:
as §1

Consider `O=C1NC(Cc2c[nH]cn2)C(=O)N2CCCC12` (centres unmarked) [cyclo(his-pro), histidyl-proline diketopiperazine], for which, in data set [1], the “effect of pretreatment on salsolinol-induced degeneration” value is recorded as “prevented degeneration”.

As usually defined, the EC50 is the concentration giving half of the maximal effect. Regarding `CC1NCCc2cc(O)c(O)cc21` (centres unmarked) [salsolinol], in the data set on OCT2 (wild-type 400R), the EC50 at 48 h is 192 µM.
